Experiment: Measurement of maximum absorption wavelength
Format: physicochemical
Details: solution in a good solvent, spectrophotometer UV-3150, 250 to 800 nm
Description: The maximum absorption wavelength (nm) of the dichroic material in the present specification is acquired from an ultraviolet visible spectrum in a wavelength range of 380 to 800 nm measured by a spectrophotometer using a solution prepared by dissolving the dichroic material in a good solvent.
The maximum absorption wavelengths of the dichroic materials used in the examples and the comparative examples were measured. The maximum absorption wavelength was acquired from the ultraviolet visible light spectrum in a wavelength range of 250 to 800 nm which was measured by a spectrophotometer (product name, “UV-3150”, manufactured by Shimadzu Corporation) using a solution in which the dichroic material was dissolved in a good solvent.

Row | Compound | Second dichroic material maximum absorption wavelength | other results
1 | C=CC(=O)OCCN(CC)c1ccc(N=Nc2nc3sc(N=Nc4ccc(OCCCCCCCCCOC(C)=O)cc4)cc3s2)cc1 [Example C-1] |  | First dichroic material maximum absorption wavelength: 591 nm
2 | C=CC(=O)OCCN(CC)c1ccc(N=Nc2ccc(N=Nc3ccc(OCCCCCCCCCOC(=O)CC)cc3)cc2)cc1 [Example M-3] | 471 nm | 
3 | CCN(CC)c1ccc(N=Nc2ccc(N=Nc3ccc(OCCCCCCCCCOC(C)=O)cc3)cc2)cc1 [Example M-5] | 484 nm | 
4 | C=CC(=O)OCCCCOc1ccc(N=Nc2ccc(N=Nc3ccc(N=Nc4ccc(OCCCCOC(C)=O)cc4)cc3)c(C)c2)cc1 [Example Y-1] |  | Third dichroic material maximum absorption wavelength: 418 nm
5 | CCOC(=O)CCCCOc1ccc(N=Nc2ccc(N=Nc3ccc(N=Nc4ccc(OCCCCC(=O)OCC)cc4)cc3C)cc2)cc1 [Example Y-2] |  | Third dichroic material maximum absorption wavelength: 418 nm

Further lines, with some results ahead:

Row | Second dichroic material maximum absorption wavelength | Compound | other results
6 | 466 nm | CCC(=O)OCCN(C)c1ccc(N=Nc2ccc(N=Nc3ccc(OCCCCCCCCCOC(C)=O)cc3)cc2)cc1 [Example M-1] | 
7 | 471 nm | CCC(=O)OCCCCCCCCCOc1ccc(N=Nc2ccc(N=Nc3ccc(N(CC)CCOC(=O)CC)cc3)cc2)cc1 [Example M-2] | 
8 | 460 nm | CCC(=O)OCCCCCCCCCOc1ccc(N=Nc2ccc(N=Nc3ccc(N(CC)CCC#N)cc3)cc2)c(Cl)c1 [Example M-4] | 
9 | 465 nm | CC(=O)OCCCCCCCCCOc1ccc(N=Nc2ccc(N=Nc3ccc(N(C)CCOC(C)=O)cc3)cc2)cc1 [Example M-6] | 

From patent US12252644B2, “Polarizer and image display device” (FUJIFILM Corporation, priority 2019, dated 2025)
